Where “and” joins values, the source holds several entries; their conditions need not be identical. Equal values may be shown once.
Tests used:
[1] = test system: velvetleaf (Abutilon theophrasti); test: Greenhouse test, combination of Procedures II and III (Examples 1, 2; Tables 1, 2); format: in vivo; settings: for Percent Injury VELE: 7 weeks; for % Injury VELE: 3 weeks
Corn = test: Greenhouse test, combination of Procedures II and III: insecticide in-furrow or in cover layer, herbicide and antidote incorporated in cover layer (Examples 1-3, 6; Tables 1-3, 6); format: in vivo; settings: for Percent Injury Corn: 7 weeks; for % Injury Corn: 3 weeks
[2] = Antidote 1 0.14 + Herbicide 1 0.14 Kg/Ha
[3] = Antidote 1 0.56 + Herbicide 1 0.56 Kg/Ha
[4] = Antidote 1 2.24 + Herbicide 1 2.24 Kg/Ha
[5] = Ex. 2: Antidote 1 0.14 + Herbicide 1 0.14 Kg/Ha
[6] = Ex. 2: Antidote 1 0.42 + Herbicide 1 0.14 Kg/Ha
[7] = Ex. 2: Antidote 1 0.56 + Herbicide 1 0.56 Kg/Ha
[8] = Ex. 2: Antidote 1 1.68 + Herbicide 1 0.56 Kg/Ha
[9] = Ex. 2: Insecticide 1 0.11 kg/305m + Antidote 1 0.14 + Herbicide 1 0.14 Kg/Ha
[10] = Ex. 2: Insecticide 1 0.11 kg/305m + Antidote 1 0.42 + Herbicide 1 0.14 Kg/Ha
[11] = Ex. 2: Insecticide 1 0.11 kg/305m + Antidote 1 0.56 + Herbicide 1 0.56 Kg/Ha
[12] = Ex. 2: Insecticide 1 0.11 kg/305m + Antidote 1 1.68 + Herbicide 1 0.56 Kg/Ha
[13] = Ex. 2: Insecticide 1 0.23 Kg/305m + Antidote 1 0.14 + Herbicide 1 0.14 Kg/Ha
[14] = Ex. 2: Insecticide 1 0.23 Kg/305m + Antidote 1 0.22 + Herbicide 1 0.14 + Herbicide 2 4.48 Kg/Ha
[15] = Ex. 2: Insecticide 1 0.23 Kg/305m + Antidote 1 0.42 + Herbicide 1 0.14 Kg/Ha
[16] = Ex. 2: Insecticide 1 0.23 Kg/305m + Antidote 1 0.56 + Herbicide 1 0.56 Kg/Ha
[17] = Ex. 2: Insecticide 1 0.23 Kg/305m + Antidote 1 1.68 + Herbicide 1 0.56 Kg/Ha
[18] = Ex. 2: Insecticide 2 3.36 Kg/Ha + Antidote 1 0.22 + Herbicide 1 0.14 + Herbicide 2 4.48 Kg/Ha
[19] = Ex. 2: Insecticide 2 3.36 Kg/Ha + Antidote 1 0.22 + Herbicide 2 4.48 Kg/Ha

## CC1(C)OC(c2ccco2)CN1C(=O)C(Cl)Cl (stereo not drawn) [Antidote No. 1, Oxazolidine, 3-(dichloroacetyl)-2,2-dimethyl-5-(2-furanyl)-]
[1]; [2]
  Percent Injury VELE: 88%
[1]; [3]
  Percent Injury VELE: 92%
[1]; [4]
  Percent Injury VELE: 93%
[1]; Antidote 1 2.24 Kg/Ha alone
  Percent Injury VELE: 0%
[1]; [5]
  % Injury VELE: 86%
[1]; [6]
  % Injury VELE: 93%
[1]; [7]
  % Injury VELE: 90%
[1]; [8]
  % Injury VELE: 95%
[1]; [9]
  % Injury VELE: 78%
[1]; [10]
  % Injury VELE: 84%
[1]; [11]
  % Injury VELE: 93%
[1]; [12]
  % Injury VELE: 95%
[1]; Ex. 2: Insecticide 1 0.23 Kg/305m (ditto mark) + Antidote 1 0.22 + Herbicide 2 4.48 Kg/Ha (so in the source)
  % Injury VELE: 36% and 38%
[1]; [13]
  % Injury VELE: 83%
[1]; [14]
  % Injury VELE: 98%
[1]; [15]
  % Injury VELE: 90%
[1]; [16]
  % Injury VELE: 95%
[1]; [17]
  % Injury VELE: 93%
[1]; Ex. 2: Insecticide 2 1.68 kg/Ha + Antidote 1 0.14 + Herbicide 1 0.14 Kg/Ha (so in the source)
  % Injury VELE: 91% and 84% and 79%
[1]; Ex. 2: Insecticide 2 1.68 kg/Ha + Antidote 1 0.56 + Herbicide 1 0.56 Kg/Ha (so in the source)
  % Injury VELE: 90% and 89% and 91%
[1]; Ex. 2: Insecticide 2 3.36 Kg/Ha + Antidote 1 0.14 + Herbicide 1 0.14 Kg/Ha (so in the source)
  % Injury VELE: 81% and 79% and 89%
[1]; [18]
  % Injury VELE: 83%
[1]; [19]
  % Injury VELE: 11%
[1]; Ex. 2: Insecticide 2 3.36 Kg/Ha + Antidote 1 0.56 + Herbicide 1 0.56 Kg/Ha (so in the source)
  % Injury VELE: 95%
[1]; Insecticide 1 0.23 kg/305m + Antidote 1 0.14 + Herbicide 1 0.14 Kg/Ha
  Percent Injury VELE: 87%
[1]; Insecticide 1 0.23 kg/305m + Antidote 1 0.14 Kg/Ha, no herbicide
  Percent Injury VELE: 0%
[1]; Insecticide 1 0.23 kg/305m + Antidote 1 0.56 + Herbicide 1 0.56 Kg/Ha
  Percent Injury VELE: 90%
[1]; Insecticide 1 0.23 kg/305m + Antidote 1 0.56 Kg/Ha, no herbicide
  Percent Injury VELE: 0%
[1]; Insecticide 1 0.23 kg/305m + Antidote 1 2.24 + Herbicide 1 2.24 Kg/Ha
  Percent Injury VELE: 92%
[1]; Insecticide 1 0.23 kg/305m + Antidote 1 2.24 Kg/Ha, no herbicide
  Percent Injury VELE: 0%
[1]; Insecticide 1 (H2O) (crystals scattered in-furrow) + Antidote 1 2 + Herbicide 1 2 Kg/Ha
  Percent Injury VELE: 95%
[1]; Insecticide 1 (H2O) (crystals scattered in-furrow) + Antidote 1 2 Kg/Ha
  Percent Injury VELE: 0%
[1]; Insecticide 2 3.36 kg/ha + Antidote 1 0.14 + Herbicide 1 0.14 Kg/Ha
  Percent Injury VELE: 83%
[1]; Insecticide 2 3.36 kg/ha + Antidote 1 0.14 Kg/Ha, no herbicide
  Percent Injury VELE: 78%
[1]; Insecticide 2 3.36 kg/ha + Antidote 1 0.56 + Herbicide 1 0.56 Kg/Ha
  Percent Injury VELE: 92%
[1]; Insecticide 2 3.36 kg/ha + Antidote 1 0.56 Kg/Ha, no herbicide
  Percent Injury VELE: 33%
[1]; Insecticide 2 3.36 kg/ha + Antidote 1 2.24 + Herbicide 1 2.24 Kg/Ha
  Percent Injury VELE: 95%
[1]; Insecticide 2 3.36 kg/ha + Antidote 1 2.24 Kg/Ha, no herbicide
  Percent Injury VELE: 0%
Corn; [2]
  Percent Injury Corn: 2%
Corn; [3]
  Percent Injury Corn: 5%
Corn; [4]
  Percent Injury Corn: 15%
Corn; Antidote 1 2.24 Kg/Ha alone
  Percent Injury Corn: 0%
Corn; [5]
  % Injury Corn: 0%
Corn; [6]
  % Injury Corn: 8%
Corn; [7]
  % Injury Corn: 3%
Corn; [8]
  % Injury Corn: 5%
Corn; Ex. 2: Herbicide No. 1 0.14 kg/ha + Insecticide 1 or 2, antidote applied at 3 X the herbicide rate
  injury to corn: less than 10%
Corn; [9]
  % Injury Corn: 26%
Corn; [10]
  % Injury Corn: 6%
Corn; [11]
  % Injury Corn: 30%
Corn; [12]
  % Injury Corn: 18%
Corn; [13]
  % Injury Corn: 18%
Corn; [14]
  % Injury Corn: 20%
Corn; [15]
  % Injury Corn: 6%
Corn; [16]
  % Injury Corn: 33%
Corn; [17]
  % Injury Corn: 34%
Corn; [18]
  % Injury Corn: 29%
Corn; [19]
  % Injury Corn: 19%
Corn; Ex. 3: Antidote 1 0.14 + Herbicide 1 0.14 Kg/Ha
  % Injury Corn: 3%
Corn; Ex. 3: Antidote 1 0.22 + Herbicide 2 4.48 Kg/Ha
  % Injury Corn: 13%
Corn; Ex. 3: Antidote 1 0.42 + Herbicide 1 0.14 Kg/Ha
  % Injury Corn: 3%
Corn; Ex. 3: Antidote 1 0.56 + Herbicide 1 0.56 Kg/Ha
  % Injury Corn: 8%
Corn; Ex. 3: Antidote 1 1.68 + Herbicide 1 0.56 Kg/Ha
  % Injury Corn: 3%
Corn; Ex. 3: Herbicide No. 1 + Insecticide 3 or 4, Antidote No. 1 at 1:1 ratio, all cases
  corn injury: less than 5%
Corn; Ex. 3: Insecticide 3 (227g) + Antidote 1 0.14 + Herbicide 1 0.14 Kg/Ha
  % Injury Corn: 0%
Corn; Ex. 3: Insecticide 3 (227 g) + Antidote 1 0.22 + Herbicide 1 0.14 + Herbicide 2 4.48 Kg/Ha
  % Injury Corn: 18%
Corn; Ex. 3: Insecticide 3 (227 g) + Antidote 1 0.22 + Herbicide 2 4.48 Kg/Ha
  % Injury Corn: 25%
Corn; Ex. 3: Insecticide 3 (227g) + Antidote 1 0.42 + Herbicide 1 0.14 Kg/Ha
  % Injury Corn: 20%
Corn; Ex. 3: Insecticide 3 (227g) + Antidote 1 1.68 + Herbicide 1 0.56 Kg/Ha
  % Injury Corn: 8%

Source: EP0565593B1, “REDUCING PESTICIDAL INTERACTIONS IN CROPS” (priority 1990, dated 1992)
